The values that follow come from patent US5747447A, “Stable polypeptide composition” (COR Therapeutics, priority 1995, dated 1998).

*1 amine or outer side, *2 acyl side, *3 side chain or, on linkers, in order; H or OH if unused. Where a SMILES comes first, the peptide text is derived from it. Bridges are numbered along the chain shown (N, C = ends). Where no end group is shown, it is not given here. [ ]: non-standard residue; d: D form. X2 = CC(=N)NCCCC[C@H](N[*:1])C(=O)[*:2]; hArg = N=C(N)NCCCC[C@H](N)C(=O)O; Pen = CC(C)(S)[C@H](N)C(=O)O; Aib = CC(C)(N)C(=O)O; βAla = NCCC(=O)O; Mpa = O=C(O)CCS

One test concerns the target ADP-induced human platelet aggregation (Homo sapiens, UniProt P05106+P08514). The experiment in a line: standard aggregation inhibition assay (ADP-induced human platelet aggregation). It is filed as cell-based. The following applies: ADP-induced human platelet aggregation; read-out: Appr, IC50. The text has this: 2. Standard assays directly applied to platelet aggregation, such as those described by Gann, Z.-R., et al., J Biol Chem (1988) 263:19827-19832; Huang, T. F., et al., J Biol Chem (1987) 262:16157-16163; Biochemistry (1989) 28:661-666, cited above and incorporated herein by reference;
Take `CC1(C)SSCCC(=O)N[C@@H](CCCCN)C(=O)NCC(=O)N[C@@H](CC(=O)O)C(=O)N[C@@H](Cc2c[nH]c3ccccc23)C(=O)N2CCC[C@H]2C(=O)N[C@@H]1C(N)=O` [Analog #51, Mpr-K-G-D-W-P-Pen-NH2] ([Mpa]KGDWP[Pen]-NH2; disulfide 1-7): the IC50 (as a rule, the concentration needed to halve the response being measured) was 750 nM.

On to `CC1(C)SSCCC(=O)N[C@@H](CCCCN)C(=O)NCC(=O)N[C@H](CC(=O)O)C(=O)N[C@@H](Cc2c[nH]c3ccccc23)C(=O)N2CCC[C@H]2C(=O)N[C@@H]1C(N)=O` [Analog #54, Mpr-K-G-D.dagger.-W-P-Pen-NH2] ([Mpa]KG[dD]WP[Pen]-NH2; disulfide 1-7), for which the IC50 was > 100000 nM.

As to `CC(=N)NCCCC[C@@H]1NC(=O)CCSSC(C)(C)[C@@H](C(N)=O)NC(=O)[C@@H]2CCCN2C(=O)[C@H](Cc2c[nH]c3ccccc23)NC(=O)[C@H](CC(=O)O)NC(=O)CNC1=O` [Analog #69, Mpr-(Acetimidyl-Lys)-G-D-W-P-Pen-NH2] ([Mpa][X2]GDWP[Pen]-NH2; disulfide 1-7), the IC50 came out at 500 nM.

Take “CHGDWPC-NH2 (cysteine pairing not given here) [Analog #46]”: the IC50 turned out to be 200000 nM.

On to “Ac-CKGDWPC-NH2 (cysteine pairing not given here) [Analog #47]”, for which the IC50 came to 2500 nM.

Turning to `CC(=O)N[C@H]1CSSC(C)(C)[C@@H](C(N)=O)NC(=O)[C@H](CC(=O)O)NC(=O)CNC(=O)[C@H](CCCNC(=N)N)NC1=O` [Analog #11, Acetyl-C-R-G-D-Pen-NH2] (Ac-CRGD[Pen]-NH2; disulfide 1-5), the IC50 was determined as 5000 nM.

Turning to `CC1(C)SSCCC(=O)N[C@H](CCCCN)C(=O)NCC(=O)N[C@@H](CC(=O)O)C(=O)N[C@@H](Cc2c[nH]c3ccccc23)C(=O)N2CCC[C@H]2C(=O)N[C@@H]1C(N)=O` [Analog #62, Mpr-K.dagger.-G-D-W-P-Pen-NH2] ([Mpa][dK]GDWP[Pen]-NH2; disulfide 1-7), the half-inhibitory concentration (IC50) stood at 2500 nM.

The same test, now with this note: PAI activity, Example 15; read-out: Appr.IC20.
Consider `CC1(C)NC(=O)CCSSC[C@@H](C(N)=O)NC(=O)[C@@H]2CCCN2C(=O)[C@H](Cc2c[nH]c3ccccc23)NC(=O)[C@H](CC(=O)O)NC(=O)CNC(=O)[C@H](CCCCNC(=N)N)NC1=O` [PAI 83, Mpr-Aib-Har-G-D-W-P-C-NH2] ([Mpa][Aib][hArg]GDWPC-NH2; disulfide 1-8), for which the IC20 (as a rule, the point of the concentration-response curve where the effect stands at 20%) came to 2200 nM.

On to `N=C(N)NCCCC[C@@H]1NC(=O)CCNC(=O)CCSSC[C@@H](C(N)=O)NC(=O)[C@@H]2CCCN2C(=O)[C@H](Cc2c[nH]c3ccccc23)NC(=O)[C@H](CC(=O)O)NC(=O)CNC1=O` [PAI 87, Mpr-(β-Ala)-Har-G-D-W-P-C-NH2] ([Mpa][βAla][hArg]GDWPC-NH2; disulfide 1-8), for which the 20% effect concentration (IC20) was 920 nM.

In the case of `C[C@H]1NC(=O)[C@@H]2CCCN2C(=O)[C@H](Cc2c[nH]c3ccccc23)NC(=O)[C@H](CC(=O)O)NC(=O)CNC(=O)[C@H](CCCCNC(=N)N)NC(=O)CCSSC[C@@H](C(N)=O)NC1=O` [PAI 96, Mpr-Har-G-D-W-P-A.dagger.-C-NH2] ([Mpa][hArg]GDWP[dA]C-NH2; disulfide 1-8), the IC20 is 230 nM.

As to `N=C(N)NCCCC[C@@H]1NC(=O)[C@@H]2CCCN2C(=O)CCSSC[C@@H](C(N)=O)NC(=O)[C@@H]2CCCN2C(=O)[C@H](Cc2c[nH]c3ccccc23)NC(=O)[C@H](CC(=O)O)NC(=O)CNC1=O` [PAI 80, Mpr-P-Har-G-D-W-P-C-NH2] ([Mpa]P[hArg]GDWPC-NH2; disulfide 1-8), the IC20 was determined as 1290 nM.

With `CC(C)[C@@H]1NC(=O)CCSSC[C@@H](C(N)=O)NC(=O)[C@@H]2CCCN2C(=O)[C@H](Cc2c[nH]c3ccccc23)NC(=O)[C@H](CC(=O)O)NC(=O)CNC(=O)[C@H](CCCCNC(=N)N)NC1=O` [PAI 91, Mpr-V-Har-G-D-W-P-C-NH2] ([Mpa]V[hArg]GDWPC-NH2; disulfide 1-8), the IC20 was found to be 350 nM.

In the case of “Mpr-Har-G-D-W-P-(Aib)-NH2 ([Mpa][hArg]GDWP[Aib]-NH2; SMILES CC(C)(NC(=O)[C@@H]1CCCN1C(=O)[C@H](Cc1c[nH]c2ccccc12)NC(=O)[C@H](CC(=O)O)NC(=O)CNC(=O)[C@H](CCCCNC(=N)N)NC(=O)CCS)C(N)=O) [PAI 99]”, the IC20 was 460 nM.
